Results from US6362328B1, “Assays and probes with enzyme labels” (London Biotechnology Limited, priority 1996, dated 2002).

What was measured:
[1] = target: T1, nuclease P1 (Penicillium citrinum, UniProt P24289); test: Effect of p-nitrophenyl phosphate on the activity of nuclease P1; format: biochemical; parameters: purchased Sigma Chemical Company; settings: p-nitrophenyl phosphate at concentrations up to approximately 5 mM; FIG. 3
T1 sequence (P24289 1-270): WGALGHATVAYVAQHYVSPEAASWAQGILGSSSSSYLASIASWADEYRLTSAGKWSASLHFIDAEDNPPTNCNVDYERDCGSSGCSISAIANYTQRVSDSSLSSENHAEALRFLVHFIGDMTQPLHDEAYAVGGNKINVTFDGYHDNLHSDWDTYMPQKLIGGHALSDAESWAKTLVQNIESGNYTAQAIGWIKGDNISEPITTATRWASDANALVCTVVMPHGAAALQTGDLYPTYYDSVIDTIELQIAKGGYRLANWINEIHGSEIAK
Method: (§1) The effect of the added p-nitrophenyl phosphate on the background color generation in the absence of nuclease P1 was also noted. This background is due to endogenous “FADPase” in the apoglucose oxidase used in the assay. At concentrations up to approximately 5 mM, added p-nitrophenyl phosphate has no effect on nuclease P1, but reduces the background signal by 80-100% (FIG. 3).

[2] = tested on: endogenous "FADPase" in the apoglucose oxidase; test: Effect of p-nitrophenyl phosphate on background color generation in the absence of nuclease P1; format: biochemical; settings: p-nitrophenyl phosphate at concentrations up to approximately 5 mM; no nuclease P1; FIG. 3
Method: as §1

[3] = target: T1, nuclease P1; settings: phosphate 0 to 10 mM; nuclease P1 at pH 6.5, alkaline phosphatase at pH 8.9; FIG. 2
Method: A solution of nuclease P1 standardized according to Example 1 was serially diluted in 50 mM citrate buffer adjusted to pH 6.5 with NaOH. The assay mixture contained 20 μM 3′FADP, 0.1 mM 4-aminoantipyrine, 2 mM DHSA, 1 μg horseradish peroxidase, 0.1 M glucose and 0.1 μM apoglucose oxidase in a total volume of 0.1 ml. The change in absorbance was monitored at 520 nm in a Dynatech MR7000 plate reader fitted with a thermostatically controlled plate holder set to 25° C.

[4] = Standardization of nuclease P1 (coupled NADH assay, absorbance at 340 nm); format: biochemical; settings: 22.7 μM solution (1 mg in 1 ml water); 50 mM HEPES pH 7.2; molar extinction coefficient of 6220 for NADH assumed
Method: Nuclease P1 (1 mg; obtained from Sigma Chemical Company, batch no: 107F0799) was dissolved in 1 ml of water to give a concentration of 22.7 μM and stored at 4° C. The activity of this solution was assayed in the following mixture: 0.16 mM NADH, 1 mM ATP, 1 mM PEP, 1 mM MgSO4, 20 mM KCl, 0.5 mM adenosine 3′,5′-bisphosphate, 1 U pyruvate kinase, 1 U lactate dehydrogenase and 1 U myokinase in 50 mM HEPES buffer, pH 7.2, in a total volume of 1 ml.

O=[N+]([O-])c1ccc(OP(=O)(O)O)cc1 [p-nitrophenyl phosphate]
effect on nuclease P1 activity [1]: no effect | reduction of background signal [2]: 80-100%

phosphate
effect of phosphate on enzyme activity [3]: less of an effect on nuclease P1 than on alkaline phosphatase

B1: Nuclease P1: enzyme obtained from Sigma Chemical Company, used as enzyme label (protein, UniProt P24289 1-270, looked up)
Nuclease P1: T1 sequence (P24289 1-270)
activity of nuclease P1 solution [4]: 320 U/ml
